The subject of assay [1] is NLRP6 inflammasome. The assay can be described thus: Colon explants cultured with metabolites (IL-18 ELISA, caspase-1 immunoblot, gene expression). Format: cell-based, mouse. As to conditions: colon explants incubated for 24 hrs, compared with spermine. The method, then: Colons were excised and washed thoroughly with PBS, homogenized in RIPA buffer containing protease inhibitors, incubated for 20 min in 4° C. and centrifuged for 20 min, 14,000 rpm at 4° C. Samples were separated on 15% acrylamide gels and transferred onto nitrocellulose membranes. Western blot analysis was performed using anti-caspase 1 p20 polyclonal antibody (Adipogen, AG-20B-0042B-C100) and Goat anti mouse antibody (Jackson ImmunoResearch, 115-035-003). Band density was calculated using ImageJ software. Colon pieces, 0.5 cm long, from the proximal colon were removed, rinsed with PBS, and weighed. The tissue explants were cultured for 24 hrs in DMEM medium containing 10% FBS, L-glutamine, penicillin, and streptomycin at 37° C. Culture medium was collected, centrifuged and the resulting supernatant stored in aliquots at -20° C. Concentrations of IL-18 in the serum or culture supernatants were measured using ELISA. […] Samples were then washed and plates were incubated with anti-mouse IL-18-biotin antibody ([…]-6 MBL) for 1 hour and HRP-Avidin (BioLegend) for 1 hour before quantification. […] For AMP induction in-vitro, 3 μg IL-18 were added to colon explants for 7 hours, then the explants were maintained in RNAlater and RNA was extracted. Tissues were preserved in RNAlater solution (Ambion) and subsequently homogenized in Tri Reagent (Fox et al.). RNA was purified according to the manufacturer's instructions. Two microgram of total RNA was used to generate cDNA (HighCapacity cDNA Reverse Transcription kit; Applied Biosystems). RealTime-PCR was performed using gene-specific primer/probe sets (Applied Biosystems) and Kapa Probe Fast qPCR kit (Kapa Biosystems) on a Viia7 instrument (Applied Biosystems). PCR conditions were 95° C. for 20 s, followed by 40 cycles of 95° C. for 3 s and 60° C. for 30 s. Data were analyzed using the deltaCt method with hprt serving as the reference housekeeping gene.
A general note: ELISA stands for enzyme-linked immunosorbent assay.

The test system of assay [2] is DSS colitis. The assay can be described thus: DSS colitis. Type of assay: in vivo, mouse. As to conditions: Asc-/- mice, IL-18 i.p. prior to induction of DSS colitis. The method, then: (§1) For IL-18 rescue experiments, recombinant IL-18 (MBL, Cat#B004-2) was injected intraperitoneally at a concentration of 1 μg per mouse for 5 days, and not injected for 2 days prior to DSS treatment. IL-18 injection to Swiss Webster germ-free mice and Nlrp6^−/− mice was performed twice a day for 3 days, while the mice were kept sterile using a cage-autonomous system (Hecht et al., 2014).
Mice were treated with 1.5% (w/v) DSS (M.W.=36,000-50,000 Da; MP Biomedicals) in their drinking water for 7 days followed by regular access to water. The animals were weighed daily and monitored for signs of distress as well as rectal bleeding.
For DSS rescue experiments, mice were receiving taurine in the drinking water prior to DSS treatment in a concentration of 100 mg/ml for 14 days.
Colonoscopy was performed using a high-resolution mouse video endoscopic system (Carl Storz, Tuttlingen, Germany). The severity of colitis was blindly scored using MEICS (Murine Endoscopic Index of Colitis Severity), which is based on five parameters: granularity of mucosal surface; vascular pattern; translucency of the colon mucosa; visible fibrin; and stool consistency (Becker et al., 2006).
On the day of the assay, 4 kDa fluorescein isothiocyanate (FITC)-dextran was dissolved in phosphate buffered saline (PBS) to a concentration of 80 mg ml^−1. Mice were fasted for 4 hours prior to gavage with 150 μl dextran. Mice were anesthetized 3 hours following gavage and blood was collected, centrifuged at 1,000×g for 12 min at 4° C. Serum was collected and fluorescence was quantified at an excitation wavelength of 485 nm and 535 nm emission wavelength.
DNA was extracted from liver samples (using MoBio PowerSoil kit). DNA concentration was calculated using a standard curve of known DNA concentrations from E. coli K12. 16S qPCR using primers identifying different regions of the V6 16S gene was performed using Kappa SYBR fast mix.
Absolute number of bacteria in the samples was then approximated as DNA amount in a sample/DNA molecule mass of bacteria.

In assay [3] the test system is colonic AMPs. The assay can be described thus: IL-18 added to germ-free colon explants, AMP induction in-vitro. Type of assay: cell-based, mouse. To be noted: GF colon explants, sterile conditions. The method, then:
Colon explants were incubated with 70 mM of taurine (Sigma Aldrich, T0625), histamine (Sigma Aldrich, H7125) or spermine (Sigma Aldrich, S3256) for 24 hours. For AMP induction in-vitro, 3 μg IL-18 were added to colon explants for 7 hours, then the explants were maintained in RNAlater and RNA was extracted.
(§2) Tissues were preserved in RNAlater solution (Ambion) and subsequently homogenized in Tri Reagent (Fox et al.). RNA was purified according to the manufacturer's instructions. Two microgram of total RNA was used to generate cDNA (HighCapacity cDNA Reverse Transcription kit; Applied Biosystems). RealTime-PCR was performed using gene-specific primer/probe sets (Applied Biosystems) and Kapa Probe Fast qPCR kit (Kapa Biosystems) on a Viia7 instrument (Applied Biosystems). PCR conditions were 95° C. for 20 s, followed by 40 cycles of 95° C. for 3 s and 60° C. for 30 s. Data were analyzed using the deltaCt method with hprt serving as the reference housekeeping gene.

Assay [4] has as its system colonic AMPs. The assay is described as follows: In-vivo injection of recombinant IL-18, colonic IL-18 and AMP levels. Details: species or system mouse. The method, then: as §1
Concentrations of IL-18 in the serum or culture supernatants were measured using ELISA. Plates were coated over night with IL-18 (MBL, B004-2), incubated for 4 hours with supernatant or serum. Samples were then washed and plates were incubated with anti-mouse IL-18-biotin antibody (D048-6 MBL) for 1 hour and HRP-Avidin (BioLegend) for 1 hour before quantification.
as §2

The test system of assay [5] is intestinal microbiota. The assay can be described thus: In-vivo injection of recombinant IL-18, 16S microbiota analysis. Further details: species or system mouse. The method, then:
as §1
Frozen fecal samples were processed for DNA isolation using the MoBio PowerSoil kit according to the manufacturer's instructions. For the 16S rRNA gene PCR amplification, ing of the purified fecal DNA was used for PCR amplification. Amplicons spanning the variable region 1/2 (V1/2) of the 16S rRNA gene were generated by using the following barcoded primers: Fwd 5′-XXXXXXXXAGAGTTTGATCCTGGCTCAG-3′ (SEQ ID NO: 1), Rev 5′-TGCTGCCTCCCGTAGGAGT-3′ (SEQ ID NO: 2), where X represents a barcode base. The reactions were subsequently pooled and cleaned (PCR clean kit, Promega), and the PCR products were then sequenced on an Illumina MiSeq in 500 bp paired-end method. The reads were then processed using the QIIME (Quantitative Insights Into Microbial Ecology, www(dot)qiime(dot)org) analysis pipeline as described (Caporaso et al., 2010; Elinav et al., 2011). In brief, fasta quality files and a mapping file indicating the barcode sequence corresponding to each sample were used as inputs, reads were split by samples according to the barcode, taxonomical classification was performed using the RDP-classifier, and an OTU table was created. Closed-reference OTU mapping was employed using the Greengenes database. Rarefaction was used to exclude samples with insufficient count of reads per sample. Sequences sharing 97% nucleotide sequence identity in the V2 region were binned into operational taxonomic units (97% ID OTUs). For beta-diversity, weighted unifrac measurements were plotted according to the two principal coordinates based on 1,000 reads per sample. The OTU tables used for our analyses are made accessible online.

In assay [6] the test system is microbiota. The assay can be described thus: Ang4 in-vitro culture of stool microbiota under anaerobic conditions. Further details: species or system mouse. The method, then: Murine Ang4 was expressed in E. coli and purified as previously described (Holloway et al, 2001). Stool pellets were collected and cultured in anaerobic conditions for 8 hours with rAng4, centrifuged and further analyzed using 16S rRNA sequencing.
Frozen fecal samples were processed for DNA isolation using the MoBio PowerSoil kit according to the manufacturer's instructions. For the 16S rRNA gene PCR amplification, ing of the purified fecal DNA was used for PCR amplification. […] The reads were then processed using the QIIME (Quantitative Insights Into Microbial Ecology, www(dot)qiime(dot)org) analysis pipeline as described (Caporaso et al., 2010; Elinav et al., 2011). In brief, fasta quality files and a mapping file indicating the barcode sequence corresponding to each sample were used as inputs, reads were split by samples according to the barcode, taxonomical classification was performed using the RDP-classifier, and an OTU table was created. […] Rarefaction was used to exclude samples with insufficient count of reads per sample. […] For beta-diversity, weighted unifrac measurements were plotted according to the two principal coordinates based on 1,000 reads per sample. […]

The mark [7] stands for this setting: GF Nlrp6-/- mice, sterile administration.
The mark [8] stands for this setting: mice lacking NLRP6, ASC, or caspase-1/11.

Take `NCCCCN` [putrescine]: the “IL-18 in colon explants” value in assay [1] is listed as “equally suppressed”.
In the case of “IL-18: recombinant IL-18 (MBL, Cat#B004-2)”, in assay [2], the colitis severity entry was “diminished”, the colonoscopy score entry was “improved” and the weight loss result is reported as “reduced”. In assay [3], the “levels of colonic AMPs” value is recorded as “restored normal levels”. Further, in assay [4] (setting [7]), the Ang4 result is reported as “induced” and the “defect in secretion of mature IL-18 protein” value is reported as “rescued this defect”. The “levels of colonic AMPs” value in assay [4] (WT GF mice, in-vivo administration) was “restored normal levels”. Moreover, in assay [4] (setting [8]), the AMP levels entry was “restored” and the IL-18 levels result is listed as “restored”. In addition, the microbiota configuration result in assay [5] (Asc- and Caspase-1/11-deficient mice) was “significant configuration changes”. Besides, the “aberrant microbiota composition, beta- and alpha-diversity” value in assay [5] (Caspase-1/11-/- mice) is listed as “corrected”. The “abundance of multiple commensal bacteria” value in assay [5] (Caspase-1/11-/- mice, relative to WT levels) is recorded as “restored”. Moreover, the microbial community composition entry in assay [5] (Nlrp6-/- mice) is recorded as “marked compositional changes”. The microbiota composition result in assay [5] (WT mice) is given as “not affected”. Moreover, in assay [5] (WT recipients cohoused with inflammasome-deficient mice), the “dominant transmission of the dysbiotic microbiota configuration” value is “prevented”. Further, in assay [5] (grWT(Asc-/-) mice injected with IL-18), the “UniFrac distance to cohousing partners” value was “increased”.

B1: Ang4: Murine Ang4 expressed in E. coli and purified; antimicrobial peptide (protein, UniProt Q3TMQ6 25-144, looked up)
Angiogenin-4: QNERYEKFLRQHYDAKPNGRDDRYCESMMKERKLTSPCKDVNTFIHGTKKNIRAICGKKGSPYGENFRISNSPFQITTCTHSGASPRPPCGYRAFKDFRYIVIACEDGWPVHFDESFISP
Take B1: in assay [6] (anaerobic in-vitro microbiome cultures of Asc-/- mice), the beta- and alpha-diversity result is on record as “partially restored”. For the same molecule, the “impact on overall community composition” value in assay [6] (microbiota from Asc-/- mice compared with WT mice) was “greater”.

For the origin of these results see patent US20190382827A1, “USE OF MICROBIAL METABOLITES FOR TREATING DISEASES” (Yeda Research and Development Co. Ltd., priority 2015, published 2019).
